The results in this text go back to patent US11208412B2 (DAEGU-GYEONGBUK MEDICAL INNOVATION FOUNDATION, priority 2017, dated 2021).

Holding throughout (assay): Kinase selectivity, DiscoverX scanMAX Kinase assay panel (% control)
What all share (type): binding

For experiment [1], the target named is T1, kinases of the scanMAX Kinase assay panel (Homo sapiens, UniProt Q8N752).
T1 construct: purchased DiscoverX Co. (contract measurement) scanMAX Kinase assay panel
T1 sequence (Q8N752 1-337): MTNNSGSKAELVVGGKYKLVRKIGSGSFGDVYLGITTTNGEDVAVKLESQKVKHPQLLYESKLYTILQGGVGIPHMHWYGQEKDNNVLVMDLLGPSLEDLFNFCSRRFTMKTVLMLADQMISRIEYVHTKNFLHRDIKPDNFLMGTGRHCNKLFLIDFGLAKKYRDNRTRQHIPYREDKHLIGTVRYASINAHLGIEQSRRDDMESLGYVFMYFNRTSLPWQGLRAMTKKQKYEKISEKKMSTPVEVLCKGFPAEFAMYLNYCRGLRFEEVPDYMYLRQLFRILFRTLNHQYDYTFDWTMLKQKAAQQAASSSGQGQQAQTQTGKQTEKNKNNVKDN
The note with it: CSNK1A1L; 1 uM. Put shortly: (§1)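 A 1 uM DMSO solution of compound was applied across the panel kinases, and results were expressed as % control relative to DMSO (100%) and a positive control (0%).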

In experiment [2] the target is T2, kinases of the scanMAX Kinase assay panel (Homo sapiens, UniProt Q9Y616).
T2 construct: purchased DiscoverX Co. (contract measurement) scanMAX Kinase assay panel
T2 sequence (Q9Y616 1-596): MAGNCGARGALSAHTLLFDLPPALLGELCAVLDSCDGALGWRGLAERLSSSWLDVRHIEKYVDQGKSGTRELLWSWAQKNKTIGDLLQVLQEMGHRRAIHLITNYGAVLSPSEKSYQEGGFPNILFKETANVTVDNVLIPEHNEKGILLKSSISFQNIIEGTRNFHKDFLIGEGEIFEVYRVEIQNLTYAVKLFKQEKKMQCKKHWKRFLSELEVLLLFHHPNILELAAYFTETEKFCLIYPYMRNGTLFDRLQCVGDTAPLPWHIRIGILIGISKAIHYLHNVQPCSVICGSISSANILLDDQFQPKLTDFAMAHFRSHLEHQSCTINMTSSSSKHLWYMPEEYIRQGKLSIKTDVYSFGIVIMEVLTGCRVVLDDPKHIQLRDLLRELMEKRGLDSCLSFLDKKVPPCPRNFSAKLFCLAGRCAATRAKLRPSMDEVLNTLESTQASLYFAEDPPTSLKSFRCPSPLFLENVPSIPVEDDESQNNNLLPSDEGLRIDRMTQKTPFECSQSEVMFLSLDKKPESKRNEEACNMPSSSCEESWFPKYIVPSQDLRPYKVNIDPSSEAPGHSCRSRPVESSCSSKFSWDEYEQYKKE
As to conditions: IRAK3; 1 uM. Put shortly:
as §1

Experiment [3] concerns the target T3, kinases of the scanMAX Kinase assay panel (Homo sapiens, UniProt Q9NRP7).
T3 construct: purchased DiscoverX Co. (contract measurement) scanMAX Kinase assay panel
T3 sequence (Q9NRP7 1-1315): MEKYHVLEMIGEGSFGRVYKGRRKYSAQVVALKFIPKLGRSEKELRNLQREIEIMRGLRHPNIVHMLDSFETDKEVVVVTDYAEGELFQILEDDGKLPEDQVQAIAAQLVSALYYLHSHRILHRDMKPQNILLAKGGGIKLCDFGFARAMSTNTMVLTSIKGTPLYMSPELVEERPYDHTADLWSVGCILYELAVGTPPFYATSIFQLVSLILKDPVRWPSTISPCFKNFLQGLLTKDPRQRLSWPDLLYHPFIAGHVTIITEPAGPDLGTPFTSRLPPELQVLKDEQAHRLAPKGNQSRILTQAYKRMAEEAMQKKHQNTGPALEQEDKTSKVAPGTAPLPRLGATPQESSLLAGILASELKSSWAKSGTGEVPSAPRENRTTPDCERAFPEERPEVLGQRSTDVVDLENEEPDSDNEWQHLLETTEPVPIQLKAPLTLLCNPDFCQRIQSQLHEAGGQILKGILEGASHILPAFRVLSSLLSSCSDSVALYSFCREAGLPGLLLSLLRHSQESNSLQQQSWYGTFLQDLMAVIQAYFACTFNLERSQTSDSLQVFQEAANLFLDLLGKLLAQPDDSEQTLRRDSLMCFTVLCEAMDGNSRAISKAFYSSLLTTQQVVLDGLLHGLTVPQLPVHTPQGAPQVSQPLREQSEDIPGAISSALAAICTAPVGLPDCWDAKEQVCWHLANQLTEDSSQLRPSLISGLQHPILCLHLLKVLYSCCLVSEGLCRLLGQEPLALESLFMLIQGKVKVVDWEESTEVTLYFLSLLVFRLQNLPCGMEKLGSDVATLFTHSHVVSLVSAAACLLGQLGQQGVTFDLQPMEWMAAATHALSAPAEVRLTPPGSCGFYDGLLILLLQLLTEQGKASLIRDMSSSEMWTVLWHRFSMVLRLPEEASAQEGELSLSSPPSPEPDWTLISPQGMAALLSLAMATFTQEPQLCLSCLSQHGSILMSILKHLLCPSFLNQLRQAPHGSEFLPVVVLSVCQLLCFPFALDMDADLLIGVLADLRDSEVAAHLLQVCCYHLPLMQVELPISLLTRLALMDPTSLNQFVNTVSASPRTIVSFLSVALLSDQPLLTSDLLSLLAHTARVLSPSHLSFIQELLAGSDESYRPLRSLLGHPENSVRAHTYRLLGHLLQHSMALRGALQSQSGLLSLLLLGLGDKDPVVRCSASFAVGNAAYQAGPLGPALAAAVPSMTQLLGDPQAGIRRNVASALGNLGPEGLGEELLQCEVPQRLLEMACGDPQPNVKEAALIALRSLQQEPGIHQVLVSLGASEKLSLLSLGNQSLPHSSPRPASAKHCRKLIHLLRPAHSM
As to conditions: kinase STK36; 1 uM in DMSO. Put shortly:
as §1

Turning to `CNc1nc(Nc2ccc(C(=O)N3CCOCC3)cc2OC)nc2[nH]cc(C#N)c12` [Example 1, 2-((2-methoxy-4-(morpholine-4-carbonyl)phenyl)amino)-4-(methylamino)-7H-pyrrolo[2,3-d]pyrimidine-5-carbonitrile], the results for the remaining binding at 1 µM in experiment [1], in experiment [2] and in experiment [3] were 34%, 90% and 97%, respectively.

With `CC1(Nc2nc(Nc3cnn([C@H]4CCN(C5COC5)C[C@@H]4F)c3Cl)nc3[nH]cc(C#N)c23)CC1` [Example 52, 2-((5-chloro-1-((3S,4S)-3-fluoro-1-(oxetane-3-yl)piperidine-4-yl)-1H-pyrazole-4-yl)amino)((1-methylcyclopropyl)amino)-7H-pyrrolo[2,3-d]pyrimidine-5-carbonitrile], the remaining binding at 1 µM in experiment [1] is 0.85%; in experiment [2], 3.9%; in experiment [3], 85%.

For `CCNc1nc(Nc2ccc(C(=O)N3CCC(N4CCOCC4)CC3)cc2OC)nc2[nH]cc(C(F)(F)F)c12` [Example 104, (4-((4-(ethylamino)-5-(trifluoromethyl)-7H-pyrrolo[2,3-d]pyrimidine-2-yl)amino)-3-methoxyphenyl)(4-morpholinopiperidine-1-yl)methanone], the remaining binding at 1 µM in experiment [1] stood at 15%; in experiment [2], 26%; in experiment [3], 100%.
